Test results: PMC11013038, “Design, Synthesis, and Evaluation of B-(Trifluoromethyl)phenyl Phosphine–Borane Derivatives as Novel Progesterone Receptor Antagonists” (Molecules, 2024)

Experiments:
[1] = molecular target: T1, progesterone receptor (PR) (Homo sapiens, UniProt P06401); experiment: T47D alkaline phosphatase assay, PR antagonistic activity in the presence of 1 nM P4; format: cell-based; conditions: for IC50: T47D cells, 1.0 nM P4, 48 h, mean ± SD from three independent experiments
T1 construct: alkaline phosphatase assay with the T47D human breast cancer cell line; endogenous in cells; host or cells: T47D
T1 sequence (P06401 1-933): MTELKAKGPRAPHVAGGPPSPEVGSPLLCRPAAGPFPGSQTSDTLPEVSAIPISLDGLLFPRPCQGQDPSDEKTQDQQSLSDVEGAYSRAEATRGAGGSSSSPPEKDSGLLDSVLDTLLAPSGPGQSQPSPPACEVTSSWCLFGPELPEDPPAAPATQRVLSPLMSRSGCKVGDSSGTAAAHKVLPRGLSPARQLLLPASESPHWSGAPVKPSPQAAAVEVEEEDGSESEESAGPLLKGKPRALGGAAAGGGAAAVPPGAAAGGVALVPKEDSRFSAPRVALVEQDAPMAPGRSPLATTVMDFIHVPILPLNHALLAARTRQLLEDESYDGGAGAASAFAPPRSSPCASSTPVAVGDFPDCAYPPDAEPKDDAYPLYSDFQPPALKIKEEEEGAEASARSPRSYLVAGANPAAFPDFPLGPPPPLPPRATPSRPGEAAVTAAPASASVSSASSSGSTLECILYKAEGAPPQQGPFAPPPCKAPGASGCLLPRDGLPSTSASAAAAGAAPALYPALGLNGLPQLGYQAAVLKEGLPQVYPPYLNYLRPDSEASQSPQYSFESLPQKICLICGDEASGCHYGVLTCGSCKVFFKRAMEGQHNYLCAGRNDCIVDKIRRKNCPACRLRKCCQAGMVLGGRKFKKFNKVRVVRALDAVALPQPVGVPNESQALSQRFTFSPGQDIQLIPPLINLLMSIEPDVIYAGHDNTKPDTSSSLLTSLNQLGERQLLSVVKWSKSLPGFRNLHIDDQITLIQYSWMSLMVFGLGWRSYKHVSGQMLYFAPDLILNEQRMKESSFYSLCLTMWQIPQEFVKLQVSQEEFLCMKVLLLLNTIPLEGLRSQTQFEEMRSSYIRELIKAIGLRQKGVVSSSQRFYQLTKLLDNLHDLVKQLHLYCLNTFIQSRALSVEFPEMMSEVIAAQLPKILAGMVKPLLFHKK
Description: The PR agonistic and antagonistic activities of the synthesized phosphine–borane derivatives were evaluated using an alkaline phosphatase assay with the T47D human breast cancer cell line. […] The basal alkaline phosphatase activity was also not affected by the tested compounds alone. […] The PR antagonistic activities of the compounds were assessed in the presence of 1 nM of P4 (5). We also calculated the molecular volume of each compound to investigate the structure–activity relationship (SAR). Table 2 summarizes the PR antagonistic activity and calculated volumes of the synthesized compounds. […] We investigated the binding affinity of the compounds toward the PR ligand-binding domain (LBD) using a fluorescence polarization assay system. […] We also investigated the activity of compounds 28 and 34 toward the androgen receptor (AR) by means of cell-proliferation promoting/inhibitory activity toward androgen-dependent SC-3 cells. […].
T47D alkaline phosphatase assays were performed as previously described, with minor modifications. Briefly, the human breast cancer cell line T47D (HMS LINCS database Accession Numbers: 50541) was routinely cultivated in RPMI 1640 medium with 10% FBS at 37 °C in a 5% CO2 humidified incubator. The cells were plated in 96-well plates and incubated overnight in a 5% CO2 humidified incubator at 37 °C. The next day, the cells were treated with a fresh medium containing the test compound in the presence of 1 nM of progesterone and further incubated for 48 h. The medium was aspirated, and the cells were fixed with 100 μL of 1.8% formalin–PBS. The fixed cells were washed with PBS, and 100 μL of an assay buffer (1 mg/mL p-nitrophenol phosphate in diethanolamine water solution, pH 9.0) was added. The mixture was incubated at room temperature for 2 h under light-shielded conditions. The absorbance was measured at 405 nm using a DTX 880 Multimode Detector (Beckman Coulter, Brea, CA, USA). All data points were measured in triplicate, and IC50 values were calculated from three independent experiments.

C[P+](C)(C)[BH2-]c1ccc(C(F)(F)F)cc1 [Compound 28, B-4-(Trifluoromethyl)phenyl Trimethylphosphine–Borane] showed an IC50 [1] of over 10000 nM.
For FC(F)(F)c1ccc([BH2-][P+](C2CC2)(C2CC2)C2CC2)cc1 [Compound 34, B-4-(Trifluoromethyl)phenyl Tricyclopropylphosphine–Borane], the “potency relative to triisopropylphosphine derivative 32” value ([1]; T47D alkaline phosphatase assay, comparison of IC50) was “approximately three times more potent”, the IC50 [1] was 540 ± 90 nM and the melting point was 72.6 to 72.8 °C.
